Counter-ions that a name gives are not always drawn.
What was measured:
hAdoMetDC = target: T1, hAdoMetDC (Homo sapiens, UniProt P17707); experiment: Assay of AdoMetDC activity (release of 14CO2 from S-adenosyl-L-[carboxy-14C]methionine) and determination of inhibitor IC50 values; type: biochemical; details: for IC50: at least 5 concentrations, curve fit of inhibitor concentration versus % inhibition of hAdoMetDC; for inhibition / inhibition at 100 µM: at 100 μM
T1 construct: the enzyme undergoes autoprocessing to give the α and the β subunits; made in house; host or cells: E. coli JM109 (pQE30-based plasmid)
T1 sequence (P17707 1-67 limits assumed): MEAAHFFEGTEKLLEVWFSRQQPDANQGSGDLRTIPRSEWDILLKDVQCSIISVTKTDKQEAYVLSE
T1 sequence (P17707 68-328 limits assumed): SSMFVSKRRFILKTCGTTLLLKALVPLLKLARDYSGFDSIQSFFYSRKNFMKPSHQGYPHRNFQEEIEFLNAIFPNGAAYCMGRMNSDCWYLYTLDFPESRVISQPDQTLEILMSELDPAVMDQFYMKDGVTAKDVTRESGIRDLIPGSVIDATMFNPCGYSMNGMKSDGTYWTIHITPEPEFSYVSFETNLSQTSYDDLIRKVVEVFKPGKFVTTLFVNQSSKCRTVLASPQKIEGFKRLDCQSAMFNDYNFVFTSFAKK
Description: Assay of AdoMetDC Activity and Determination of Inhibitor IC50 Values
(§1) AdoMetDC was assayed by measuring the release of ^14CO2 from S-adenosyl-L-[carboxy-^14C]methionine (Amersham Pharmacia Biotech, ˜60 mCi/mmol) (36). […] For determination of the abilities of compounds to inhibit AdoMetDC, the enzyme activity was determined in the presence of no inhibitor and at least 5 concentrations of each potential inhibitor. The IC50 values were determined from curve fitting to plots of the inhibitor concentration versus the % inhibition of AdoMetDC.
as §1

AdoMetDC = target: T2, AdoMetDC (Homo sapiens, UniProt P17707); details: previously reported; cited from earlier work
T2 sequence (P17707 1-334): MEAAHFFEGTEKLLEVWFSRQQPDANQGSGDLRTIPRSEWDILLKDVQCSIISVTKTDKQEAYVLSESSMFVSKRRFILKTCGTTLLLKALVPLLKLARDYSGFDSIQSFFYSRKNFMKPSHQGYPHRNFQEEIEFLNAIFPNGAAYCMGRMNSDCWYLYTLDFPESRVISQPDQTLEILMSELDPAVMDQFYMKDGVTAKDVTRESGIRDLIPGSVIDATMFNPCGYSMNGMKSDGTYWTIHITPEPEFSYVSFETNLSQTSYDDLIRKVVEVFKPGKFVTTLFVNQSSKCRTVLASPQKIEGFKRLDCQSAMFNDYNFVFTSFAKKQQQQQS

SMILES | IC50 (hAdoMetDC) [µM] | further results
Cc1nc2c(N)ncnc2n1[C@@H]1O[C@H](CN(C)CCON)[C@@H](O)[C@H]1O [Compound 7a, 5′-[(2-Aminooxyethyl)methylamino]-5′-deoxy-8-methyladenosine sulfate (2.2:1 salt)] |  | increase in potency when an adenine 8-methyl substituent was added (hAdoMetDC; versus un-substituted parent compound): 8 fold
CNc1nc2c(N)ncnc2n1[C@@H]1O[C@H](CN(C)CCON)[C@@H](O)[C@H]1O [Compound 7b, 5′-[(2-Aminooxyethyl)methylamino]-5′-deoxy-8-(methylamino)adenosine sulfate (2.1:1 salt)] | 0.086 | 
CN(CCON)C[C@H]1O[C@@H](n2c(-c3ccccc3)nc3c(N)ncnc32)[C@H](O)[C@@H]1O.CN(CCON)C[C@H]1O[C@@H](n2c(-c3ccccc3)nc3c(N)ncnc32)[C@H](O)[C@@H]1O.O=S(=O)(O)O [Compound 7c, 5′-[(2-Aminooxyethyl)methylamino]-5′-deoxy-8-phenyladenosine sulfate (2:1 salt)] |  | inhibition (hAdoMetDC): <5% inhibition at 100 μM
CNc1nc2c(N)ncnc2n1[C@@H]1O[C@H](CN(C)CCCCON)[C@@H](O)[C@H]1O [Compound 9a, 5′-[(4-Aminooxybutyl)methylamino]-5′-deoxy-8-(methylamino)adenosine sulfate (0.4:1 salt)] | 0.049 | 
CN(CCCCON)C[C@H]1O[C@@H](n2c(-c3ccccc3)nc3c(N)ncnc32)[C@H](O)[C@@H]1O.O=S(=O)(O)O [Compound 9b, 5′-[(4-Aminooxybutyl)methylamino]-5′-deoxy-8-phenyladenosine sulfate (1.75:1 salt)] |  | inhibition (hAdoMetDC): <5% inhibition at 100 μM
CN(CCCCON)C[C@H]1O[C@@H](n2c(=O)[nH]c3c(N)ncnc32)[C@H](O)[C@@H]1O [Compound 9c, 5′-[(4-Aminooxybutyl)methylamino]-5′-deoxy-8-oxoadenosine sulfate (1.9:1 salt)] | 0.011 | 
Cc1nc2c(N)ncnc2n1[C@@H]1O[C@H](CN(C)CCCCON)[C@@H](O)[C@H]1O [Compound 9d, 5′-[(4-Aminooxybutyl)methylamino]-5′-deoxy-8-methyladenosine sulfate (1.9:1 salt)] | 0.005 | reduction in the IC50 value when an 8-methyl substituent was added to the adenine ring (hAdoMetDC; versus 8-unsubstituted parent compound): 3.4 fold
CN(CCCCON)C[C@H]1O[C@@H](n2cnc3c(N)ncnc32)[C@H](O)[C@@H]1O [Compound 9f, 5′-[(4-Aminooxybutyl)methylamino]-5′-deoxyadenosine sulfate (2:1 salt)] | 0.018 | 
CCc1nc2c(N)ncnc2n1[C@@H]1O[C@H](CN(C)CCC(N)=O)[C@@H](O)[C@H]1O [Compound 13e, 5′-[(2-Carboxamidoethyl)methyamino]-5′-deoxy-8-ethyladenosine sulfate (1.1:1 salt)] | 4 | 
Cc1nc2c(N)ncnc2n1[C@@H]1O[C@H](CN(C)CC(N)=O)[C@@H](O)[C@H]1O.O=S(=O)(O)O [Compound 13f, 5′-[(Carboxamidomethyl)methylamino]-5′-deoxy-8-methyladenosine sulfate (1.45:1 salt)] |  | inhibition (hAdoMetDC): <5% inhibition at 100 μM
CN(CCC(N)=O)C[C@H]1O[C@@H](n2cnc3c(N)ncnc32)[C@H](O)[C@@H]1O [Compound 13j, 5′-[(2-Carboxamidoethyl)methylamino]-5′-deoxyadenosine sulfate (1.9:1 salt)] | 7 | 
Cc1nc2c(N)ncnc2n1[C@@H]1O[C@H](CN(C)CCC(=O)NN)[C@@H](O)[C@H]1O [Compound 13k, 5′-Deoxy-5′-[(2-hydrazinocarbonylethyl)methylamino]-8-methyladenosine sulfate (2:1 salt)] | 0.17 | 
CN(CCC(=O)NN)C[C@H]1O[C@@H](n2cnc3c(N)ncnc32)[C@H](O)[C@@H]1O [Compound 13l, 5′-Deoxy-5′-[(2-hydrazinocarbonylethyl)methylamino]-adenosine sulfate (2:1 salt)] | 1.5 | 
Cc1nc2c(N)ncnc2n1[C@@H]1O[C@H](CN(C)CC(=O)NN)[C@@H](O)[C@H]1O [Compound 13m, 5′-Deoxy-5′-[(hydrazinocarbonylmethyl)methylamino]-8-methyladenosine] | 31 | 
CNc1nc2c(N)ncnc2n1[C@@H]1O[C@H](CN(C)CCCN)[C@@H](O)[C@H]1O [Compound 14a, 5′-[(3-Aminopropyl)methylamino]-5′-deoxy-8-(methylamino)adenosine sulfate (2.4:1 salt)] | 440 | 
CN(CCCN)C[C@H]1O[C@@H](n2c(-c3ccccc3)nc3c(N)ncnc32)[C@H](O)[C@@H]1O.O=S(=O)(O)O [Compound 14b, 5′-[(3-Aminopropyl)methylamino]-5′-deoxy-8-phenyladenosine sulfate (2.2:1 salt)] |  | inhibition (hAdoMetDC): <5% inhibition at 100 μM
CN(CCCN)C[C@H]1O[C@@H](n2cnc3c(N)ncnc32)[C@H](O)[C@@H]1O [Compound 14d, 5′-[(3-Aminopropyl)methylamino]-5′-deoxyadenosine sulfate (2:1 salt)] | 500 | 
CN(CCN)C[C@H]1O[C@@H](n2cnc3c(N)ncnc32)[C@H](O)[C@@H]1O [Compound 14e, 5′-[(2-Aminoethyl)methylamino]-5′-deoxyadenosine] |  | inhibition at 100 µM (hAdoMetDC): < 5%
Cc1nc2c(N)ncnc2n1[C@@H]1O[C@H](CN(C)CCN)[C@@H](O)[C@H]1O [Compound 14f, 5′-[(2-Aminoethyl)methylamino]-5′-deoxy-8-methyladenosine] | 88 | 
CNCCCNC[C@H]1O[C@@H](n2c(NC)nc3c(N)ncnc32)[C@H](O)[C@@H]1O.O=S(=O)(O)O [Compound 15a, 5′-deoxy-8-(methylamino)-5′(3-methylaminopropylamino)adenosine sulfate (2.4:1 salt)] |  | inhibition (hAdoMetDC): <5% inhibition at 100 μM
CNCCCNC[C@H]1O[C@@H](n2c(-c3ccccc3)nc3c(N)ncnc32)[C@H](O)[C@@H]1O.O=S(=O)(O)O [Compound 15b, 5′-deoxy-5′-(3-methylaminopropylamino)-8-phenyladenosine sulfate (1.7:1 salt)] |  | inhibition (hAdoMetDC): <5% inhibition at 100 μM
CNCCNC[C@H]1O[C@@H](n2cnc3c(N)ncnc32)[C@H](O)[C@@H]1O [Compound 15c, 5′-deoxy-5′-(2-methylaminoethylamino)adenosine] |  | inhibition at 100 µM (hAdoMetDC): < 5%
CNCCNC[C@H]1O[C@@H](n2c(C)nc3c(N)ncnc32)[C@H](O)[C@@H]1O [Compound 15d, 5′-deoxy-8-methyl-5′-(2-methylaminoethylamino)adenosine] |  | inhibition at 100 µM (hAdoMetDC): < 5%
CCc1nc2c(N)ncnc2n1[C@@H]1O[C@H](CN(C)CCCN)[C@@H](O)[C@H]1O [Compound 17d, 5′-[(3-Aminopropyl)methylamino]-5′-deoxy-8-ethyladenosine sulfate (2.5:1 salt)] | 420 | 
CN(CCNC(=N)N)C[C@H]1O[C@@H](n2cnc3c(N)ncnc32)[C@H](O)[C@@H]1O [Compound 18a, 5′-Deoxy 5′-[(2-guanidinoethyl)methylamino]adenosine] |  | inhibition at 100 µM (hAdoMetDC): < 5%
CN(CCC(=N)NO)C[C@H]1O[C@@H](n2cnc3c(N)ncnc32)[C@H](O)[C@@H]1O [Compound 18c, 5′-Deoxy-5′-[(2-hydroxyamidinoethyl)methylamino]adenosine] | 157 | 
CN(C)C[C@H]1O[C@@H](n2cnc3c(N)ncnc32)[C@H](O)[C@@H]1O [Compound 19b, 5′-Deoxy-5′-(N,N-dimethylamino)adenosine] | 9 | 
C[S+](C)C[C@H]1O[C@@H](n2cnc3c(N)ncnc32)[C@H](O)[C@@H]1O [Compound 21d, 5′-Deoxy-5′-dimethylsulfonioadenosine chloride] |  | Ki (AdoMetDC): in the μM range
